Measured values published in patent publication US9821000B2, “Compounds, compositions and corresponding uses for preventing and/or treating of dyslipidemia” (CENTRE NATIONAL DE LA RECHERCHE SCIENTIFIQUE (CNRS), priority 2013, dated 2017).

Tested on: UPR response
Experiment: UPR triggering test (4xUPRE-LacZ reporter, β-galactosidase activity) in hem1Δ yeast
Assay type: cell-based, Saccharomyces cerevisiae
Details: hem1Δ in liquid medium inducing SFA accumulation, 200 μM compound
Excerpt: A plasmidic construction carrying a fusion gene, corresponding to the encoding sequence of the gene LacZ placed under dependence of an artificial promoter containing four UPR elements (UPRE) was introduced into a hem1Δf yeast strain, as described in Pineau et al. (2009). During an induction of the UPR response, the Hac1p/XBP1p transcription is activated and gets fixed on the UPR elements of the fusion gene, leading to the transcription of the LacZ gene. With LacZ encoding β-galactosidase, the level of induction of UPR is measured to detect the corresponding enzyme activity. The hem1Δ yeast strain was cultivated in a liquid medium inducing the accumulation of SFA without other addition (Ø), or in the same medium supplemented with 200 μM of oleic acid, OAG or LPA as indicated. A.U.: arbitrary units.
The hem1Δ strain transformed by the plasmid pPW344 [2 μ URA34×UPRE-LacZ (Patil et al., 2004)] is cultivated in liquid medium YPG^A, YPG or YPG+200 μM of compound to be tested in aerobic conditions, under stirring and at 28° C. for 7 h, starting from an initial cell concentration of 2·10^6 cells/mL. At the end of the culture, 10^8 cells are collected in order to quantify the beta-galactosidase (β-gal) activity resulting from the expression of the LacZ trans gene (in the case of a triggering of UPR). […]

SMILES	UPR response in lipo-intoxicated yeasts (β-galactosidase activity)
CCCCCCCC/C=C\CCCCCCCC(=O)OC[C@@H](O)COP(=O)(O)O [LPA, 1-oleoyl-sn-glycerol-3-phosphate]	reduce the UPR response
CCCCCCCC/C=C\CCCCCCCC(=O)OC[C@H](CO)OC(C)=O [OAG, 1-oleoyl-2-acetyl-sn-glycerol]	reduce the UPR response
